A word on the Ki: it is a measure of affinity in units of concentration, obtained from inhibition or displacement.

Experiment [1] addresses Serotonin 2 (5-HT2) receptor (Rattus norvegicus, UniProt P30994+P08909+P14842). Put plainly: In vitro binding affinity to 5-hydroxytryptamine 2 receptor of rat cerebral cortex membranes using [3H]ketanserin as the radioligand. Format: tissue-based, Membrane.
Experiment [2] deals with 5-hydroxytryptamine receptor 7 (Homo sapiens, UniProt P34969). Put plainly: Binding affinity to human recombinant 5-hydroxytryptamine 7 receptor in mammalian cells using [3H]5-CT as radioligand. Format: cell-based.
For experiment [3], the target named is 5-hydroxytryptamine receptor 1B (Rattus norvegicus, UniProt P28564). In words: In vitro binding affinity at 5-hydroxytryptamine 1B receptor in rat striatal […] using [125I](-)-iodocyanopindolol as the radioligand.
Experiment [4] addresses 5-hydroxytryptamine receptor 4 (Cavia porcellus, UniProt O70528). In words: In vitro binding affinity at 5-hydroxytryptamine 4 receptor in guinea pig striatum using 3[H]GR-113808 as the radioligand. Format: tissue-based.
The target of experiment [5] is T1, Serotonin 3 receptor (5HT3) (Mus musculus, UniProt Q9JHJ5+P23979).
T1 sequence (Q9JHJ5 whole entry): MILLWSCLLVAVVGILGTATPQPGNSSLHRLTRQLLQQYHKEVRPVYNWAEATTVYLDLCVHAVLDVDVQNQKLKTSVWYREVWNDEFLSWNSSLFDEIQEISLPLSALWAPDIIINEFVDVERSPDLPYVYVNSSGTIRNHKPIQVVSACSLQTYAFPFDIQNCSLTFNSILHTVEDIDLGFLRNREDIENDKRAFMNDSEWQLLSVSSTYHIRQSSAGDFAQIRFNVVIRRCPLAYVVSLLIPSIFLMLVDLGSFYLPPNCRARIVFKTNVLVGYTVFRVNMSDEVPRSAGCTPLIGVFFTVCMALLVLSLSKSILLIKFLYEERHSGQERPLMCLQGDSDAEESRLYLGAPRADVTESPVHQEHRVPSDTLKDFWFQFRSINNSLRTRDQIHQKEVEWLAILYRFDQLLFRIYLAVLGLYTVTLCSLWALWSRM
T1 sequence (P23979 whole entry): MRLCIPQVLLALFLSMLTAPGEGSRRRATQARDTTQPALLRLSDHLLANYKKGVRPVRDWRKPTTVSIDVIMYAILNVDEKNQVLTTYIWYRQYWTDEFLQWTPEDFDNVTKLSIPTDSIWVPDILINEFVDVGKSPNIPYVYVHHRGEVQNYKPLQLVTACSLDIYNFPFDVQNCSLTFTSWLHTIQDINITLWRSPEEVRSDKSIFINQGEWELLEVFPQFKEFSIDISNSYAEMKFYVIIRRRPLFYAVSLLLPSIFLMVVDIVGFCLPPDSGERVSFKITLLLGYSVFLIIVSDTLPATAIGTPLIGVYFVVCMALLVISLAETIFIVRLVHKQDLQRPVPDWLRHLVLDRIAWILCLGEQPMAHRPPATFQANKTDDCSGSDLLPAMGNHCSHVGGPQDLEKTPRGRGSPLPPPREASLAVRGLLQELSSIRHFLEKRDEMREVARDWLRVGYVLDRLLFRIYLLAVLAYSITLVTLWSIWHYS
In words: In vitro binding affinity at 5-hydroxytryptamine 3 receptor in N1E-115 cells using 3[H]GR-65630 as the radioligand. Format: cell-based.

For experiment [6], the target named is T2, 5-hydroxytryptamine receptor 1A (Homo sapiens, UniProt P08908).
T2 sequence (P08908 whole entry): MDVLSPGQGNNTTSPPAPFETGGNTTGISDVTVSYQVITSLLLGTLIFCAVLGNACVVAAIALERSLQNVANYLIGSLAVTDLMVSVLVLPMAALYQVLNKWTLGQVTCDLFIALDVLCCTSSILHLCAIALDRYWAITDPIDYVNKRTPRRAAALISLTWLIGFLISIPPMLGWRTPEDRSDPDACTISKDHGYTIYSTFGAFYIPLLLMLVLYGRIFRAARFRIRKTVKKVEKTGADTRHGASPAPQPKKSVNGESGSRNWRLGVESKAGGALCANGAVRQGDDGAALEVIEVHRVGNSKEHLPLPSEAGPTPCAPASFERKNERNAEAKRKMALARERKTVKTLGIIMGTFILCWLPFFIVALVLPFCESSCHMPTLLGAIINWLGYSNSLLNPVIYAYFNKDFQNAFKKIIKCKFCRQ
Put plainly: In vitro binding affinity at human recombinant 5-hydroxytryptamine 1A receptor in mammalian cells using 3[H]8-OH-DPAT as the radioligand. Format: cell-based.

In experiment [7] the target is 5-hydroxytryptamine receptor 6 (Homo sapiens, UniProt P50406). Put plainly: In vitro binding affinity at human recombinant 5-hydroxytryptamine 6 receptor in mammalian cells using 3[H]LSD as the radioligand. It is filed as cell-based.
Chain of 5-hydroxytryptamine receptor 6 (P50406 whole entry): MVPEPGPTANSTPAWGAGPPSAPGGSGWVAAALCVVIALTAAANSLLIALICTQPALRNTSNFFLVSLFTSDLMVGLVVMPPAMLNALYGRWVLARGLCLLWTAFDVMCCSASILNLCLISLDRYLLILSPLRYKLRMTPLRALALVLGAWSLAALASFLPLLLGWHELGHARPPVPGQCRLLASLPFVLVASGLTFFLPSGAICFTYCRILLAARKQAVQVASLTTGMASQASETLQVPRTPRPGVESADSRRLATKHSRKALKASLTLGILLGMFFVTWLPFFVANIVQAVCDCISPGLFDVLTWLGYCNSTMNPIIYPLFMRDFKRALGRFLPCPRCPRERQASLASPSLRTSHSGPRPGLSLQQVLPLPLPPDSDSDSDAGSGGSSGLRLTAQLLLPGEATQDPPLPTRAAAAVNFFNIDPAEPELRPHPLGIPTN

Chain of 5-hydroxytryptamine receptor 7 (P34969 whole entry): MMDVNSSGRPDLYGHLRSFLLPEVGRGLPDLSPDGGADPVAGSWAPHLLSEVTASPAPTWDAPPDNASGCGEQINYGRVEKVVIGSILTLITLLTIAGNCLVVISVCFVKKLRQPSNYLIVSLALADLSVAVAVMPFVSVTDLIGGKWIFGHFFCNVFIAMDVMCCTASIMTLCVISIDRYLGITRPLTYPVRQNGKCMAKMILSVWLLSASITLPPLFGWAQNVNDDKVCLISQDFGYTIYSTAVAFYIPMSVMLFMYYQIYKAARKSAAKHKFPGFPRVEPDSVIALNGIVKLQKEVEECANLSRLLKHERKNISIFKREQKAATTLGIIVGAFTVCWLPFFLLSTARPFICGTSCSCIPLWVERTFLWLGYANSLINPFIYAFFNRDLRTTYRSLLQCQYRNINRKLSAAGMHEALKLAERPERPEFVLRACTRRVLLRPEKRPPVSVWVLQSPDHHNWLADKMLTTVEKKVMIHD
Chain of 5-hydroxytryptamine receptor 1B (P28564 whole entry): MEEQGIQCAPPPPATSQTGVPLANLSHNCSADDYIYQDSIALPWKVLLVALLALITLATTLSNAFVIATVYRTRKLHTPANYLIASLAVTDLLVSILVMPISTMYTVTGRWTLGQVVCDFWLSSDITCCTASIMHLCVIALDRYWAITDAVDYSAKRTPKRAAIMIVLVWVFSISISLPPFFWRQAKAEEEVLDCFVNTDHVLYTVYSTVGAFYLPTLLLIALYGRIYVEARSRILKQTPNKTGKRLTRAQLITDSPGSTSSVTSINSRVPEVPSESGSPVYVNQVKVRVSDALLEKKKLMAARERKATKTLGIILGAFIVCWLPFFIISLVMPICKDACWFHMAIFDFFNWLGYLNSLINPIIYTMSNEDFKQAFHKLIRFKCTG
Chain of 5-hydroxytryptamine receptor 4 (O70528 whole entry): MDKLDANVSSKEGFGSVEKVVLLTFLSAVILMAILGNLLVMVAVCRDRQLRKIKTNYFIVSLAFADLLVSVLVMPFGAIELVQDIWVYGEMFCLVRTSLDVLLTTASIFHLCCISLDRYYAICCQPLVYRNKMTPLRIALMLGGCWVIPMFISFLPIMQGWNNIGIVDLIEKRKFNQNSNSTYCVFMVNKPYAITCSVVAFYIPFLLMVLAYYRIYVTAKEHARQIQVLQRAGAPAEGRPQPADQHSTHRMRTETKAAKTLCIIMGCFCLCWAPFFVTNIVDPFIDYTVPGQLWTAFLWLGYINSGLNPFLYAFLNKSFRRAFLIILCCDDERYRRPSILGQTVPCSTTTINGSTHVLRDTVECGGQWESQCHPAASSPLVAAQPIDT

Take `O=C1Nc2cccc3c2C1(CCCCN1CCC(c2ccccc2)CC1)CCC3` (stereo not drawn): the “Log Ki” value in experiment [1] is on record as -6.84. The Ki in experiment [2] is 3.98 nM.
Consider `NCCc1c[nH]c2ccc(C(N)=O)cc12`, for which the “Log Ki” value in experiment [1] was less than -6.
In the case of `O=C1Nc2cccc3c2C1(CCCCN1CCN(C2CCCCC2)CC1)CCC3` (stereo not drawn), the “Log Ki” value in experiment [1] is on record as less than -6.
With `O=C1Nc2cccc3c2C1(CCCCN1CCC(O)(c2ccccc2)CC1)CCC3` (stereo not drawn), the “Log Ki” value in experiment [1] is on record as -6.35. In experiment [2], the Ki is 43.7 nM.
On the same counts, the results for `Cc1cccc(C)c1N1CCN(CCCCC23CCCc4cccc(c42)NC3=O)CC1` (stereo not drawn) are -5.85 and 148 nM.
As for `C=CCn1c2c(c3ccccc31)CCN(CCCCC13CCCc4cccc(c41)NC3=O)C2` (stereo not drawn), the “Log Ki” value in experiment [1] was -6.55. Also, the Ki in experiment [2] is 6.03 nM.
As to `CC(=O)c1ccccc1N1CCN(CCCCC23CCCc4cccc(c42)NC3=O)CC1` (stereo not drawn), the “Log Ki” value in experiment [1] is -6.45. The Ki in experiment [2] was 7.94 nM.
`Cc1ccccc1N1CCN(CCCCC23CCCc4cccc(c42)NC3=O)CC1` (stereo not drawn): the “Log Ki” value in experiment [1] was -7.35. For the same compound, in experiment [2], the Ki was 10.5 nM.
As for `Cc1ccc(C2=CCN(CCCCC34CCCc5cccc(c53)NC4=O)CC2)cc1` (stereo not drawn), in experiment [1], the “Log Ki” value was -6.94. Also, in experiment [2], the Ki was 4.79 nM.
Turning to `Cn1c2c(c3ccccc31)CCN(CCCCC13CCCc4cccc(c41)NC3=O)C2` (stereo not drawn), in experiment [1], the “Log Ki” value is -6.28. For the same compound, the Ki in experiment [2] was 19.1 nM.
For the compound `O=C1Nc2cccc3c2C1(CCCCN1CCN(c2ccccc2Cl)CC1)CCC3` (stereo not drawn), in experiment [1], the “Log Ki” value is -7.01. The Ki in experiment [2] was 12.3 nM.
On to `COC1(c2ccccc2)CCN(CCCCC23CCCc4cccc(c42)NC3=O)CC1` (stereo not drawn), for which the “Log Ki” value in experiment [1] was -6.43. The Ki in experiment [2] was 21.9 nM.
Consider `CC(=O)C1(c2ccccc2)CCN(CCCCC23CCCc4cccc(c42)NC3=O)CC1` (stereo not drawn), for which the “Log Ki” value in experiment [1] is given as -7.01. In experiment [2], the Ki was 72.4 nM.
With `COc1ccc2[nH]c3c(c2c1)CCN(CCCCC12CCCc4cccc(c41)NC2=O)C3` (stereo not drawn), the “Log Ki” value in experiment [1] was -6.17. In experiment [2], the Ki is 29.5 nM.
The corresponding values for `O=C1Nc2cccc3c2C1(CCCCN1CC=C(c2ccc(F)cc2)CC1)CCC3` (stereo not drawn) are -7.1 and 3.55 nM.
As for `O=C1Nc2ccc(O)c3c2C1(CCCCN1CC=C(c2ccccc2)CC1)CCC3` (stereo not drawn), in experiment [1], the “Log Ki” value is reported as -7.4. In experiment [2], the Ki is 8.13 nM.
Regarding `CNC(=O)Cn1c2c(c3ccccc31)CCN(CCCCC13CCCc4cccc(c41)NC3=O)C2` (stereo not drawn), the “Log Ki” value in experiment [1] is less than -6; in experiment [5] it was more than -6. Also, the Ki in experiment [3] is more than 1000 nM; in experiment [4], 490 nM; in experiment [6], 129 nM; in experiment [7], more than 1000 nM; in experiment [2], 3.55 nM.
For `NC(=O)C1(c2ccccc2)CCN(CCCCC23CCCc4cccc(c42)NC3=O)CC1` (stereo not drawn), in experiment [1], the “Log Ki” value was -7.8. For the same compound, the Ki in experiment [2] is 224 nM.
With `O=C1Nc2cccc3c2C1(CCCCN1CCN(c2ccccc2[N+](=O)[O-])CC1)CCC3` (stereo not drawn), the “Log Ki” value in experiment [1] is given as -7.34. For the same compound, the Ki in experiment [2] is 24 nM.
On the same counts, the results for `O=C1Nc2cccc3c2C1(CCCCN1CCN(c2ccccc2C(F)(F)F)CC1)CCC3` (stereo not drawn) are -5.86 and 74.1 nM.
Consider `COc1ccc2c3c1CCCC3(CCCCN1CC=C(c3ccccc3)CC1)C(=O)N2` (stereo not drawn), for which the “Log Ki” value in experiment [1] is -7.55. In experiment [2], the Ki is 110 nM.
On to `NC(=O)c1ccc2c3c1CCCC3(CCCCN1CC=C(c3ccccc3)CC1)C(=O)N2` (stereo not drawn), for which the “Log Ki” value in experiment [1] is reported as -6.8. Also, the inhibitory constant (Ki) in experiment [2] is 417 nM.
With `CN1C(=O)C2(CCCCN3CC=C(c4ccccc4)CC3)CCCc3cccc1c32` (stereo not drawn), the “Log Ki” value in experiment [1] is listed as -6.88. Further, the Ki in experiment [2] was 25.1 nM.
With `NC(=O)c1ccccc1N1CCN(CCCCC23CCCc4cccc(c42)NC3=O)CC1` (stereo not drawn), in experiment [1], the “Log Ki” value is given as -6.05. In addition, the Ki in experiment [2] is 17.4 nM.
In the case of `NC(=O)Cn1c2c(c3ccccc31)CCN(CCCCC13CCCc4cccc(c41)NC3=O)C2` (stereo not drawn), in experiment [1], the “Log Ki” value is recorded as -6.09. In addition, in experiment [2], the Ki was 8.71 nM.
Consider `O=C1Nc2ccc(Br)c3c2C1(CCCCN1CC=C(c2ccccc2)CC1)CCC3` (stereo not drawn), for which the “Log Ki” value in experiment [1] is on record as -6.54. The Ki in experiment [2] is 12.3 nM.
For the compound `CC(=O)c1ccc2c3c1CCCC3(CCCCN1CC=C(c3ccccc3)CC1)C(=O)N2` (stereo not drawn), in experiment [1], the “Log Ki” value was -7.12. In addition, the Ki in experiment [2] was 97.7 nM.
For the compound `CN(C)C(=O)Cn1c2c(c3ccccc31)CCN(CCCCC13CCCc4cccc(c41)NC3=O)C2` (stereo not drawn), the “Log Ki” value in experiment [1] was less than -6. Also, the Ki in experiment [2] is 19.1 nM.
On the same counts, the results for `COCn1c2c(c3ccccc31)CCN(CCCCC13CCCc4cccc(c41)NC3=O)C2` (stereo not drawn) are -6.24 and 17 nM.
For the compound `CC(=O)n1c2c(c3ccccc31)CCN(CCCCC13CCCc4cccc(c41)NC3=O)C2` (stereo not drawn), in experiment [1], the “Log Ki” value is reported as -6.27. In experiment [2], the Ki is 6.46 nM.
As for `O=C1Nc2cccc3c2C1(CCCCN1CCc2c([nH]c4ccccc24)C1)CCC3` (stereo not drawn), in experiment [1], the “Log Ki” value is on record as -6.62. In addition, the Ki in experiment [2] was 5.75 nM.
As to `COc1ccc(N2CCN(CCCCC34CCCc5cccc(c53)NC4=O)CC2)cc1` (stereo not drawn), the “Log Ki” value in experiment [1] is -6.69. The Ki in experiment [2] is 20.4 nM.
Consider `COc1cccc(N2CCN(CCCCC34CCCc5cccc(c53)NC4=O)CC2)c1` (stereo not drawn), for which the “Log Ki” value in experiment [1] is reported as -7.19. For the same compound, in experiment [2], the Ki is 2.34 nM.
Consider `CN(C)C(=O)n1c2c(c3ccccc31)CCN(CCCCC13CCCc4cccc(c41)NC3=O)C2` (stereo not drawn), for which the “Log Ki” value in experiment [1] is listed as -6.12. For the same compound, in experiment [2], the Ki was 7.08 nM.
The corresponding values for `O=C1Nc2cccc3c2C1(CCCCN1CCN(c2ncccn2)CC1)CCC3` (stereo not drawn) are -6.91 and 45.7 nM.
